According to patent US4386103A, “Dichloroamino acid derivatives useful as potent germicidal and fungicidal agents” (Merck & Co., Inc., priority 1981, dated 1983):

How the values were obtained:
Type in all cases: cell-based
Bacillus subtilis = experiment: Contact germicidal screen, Bacillus subtilis ATCC No. 60511
Experimental: (§1) The organisms used in the contact germicidal screen are all maintained as stock cultures on nutrient agar […] 4° C. They are transferred and biochemically diagnosed monthly. The five organisms used are: The media used are: […] Overnight cultures of the test organisms are grown in tryptose phosphate broth. After 15-16 hours, the cultures are centrifuged at […] for 15 minutes, and the supernatant replaced with fresh warm (37° C.) media. After two hours of incubation, the absorbance of the culture at 650 nm is determined and diluted with nutrient broth to 1×10^7 colony forming units per ml (using a previous determined standard curve: colony forming units/ml vs. absorbance at 650). The diluted cultures are maintained at 4°-8° C. throughout the screen. The compounds are weighed into sterile 100 ml volumetric flasks, and immediately before screening dissolved in one of the following buffers: 0.1 M NaOAc pH 4.6 or 0.1 M NaH2 PO4 pH 7.0. If solubility poses a problem, 10-30% methanol is used to effect solution. Two denaturing agents are also tested: […] Horse Serum restored with 100 ml distilled water and 10% Trition×100. When used, 2.5 ml of the denaturing agent is mixed with 2.5 ml of double strength test solution thirty minutes before the bacterial suspension is added. The screen is initiated when 0.2 ml of the bacterial suspension is added to 5.0 ml of the test solution contained in a sterile 25 ml glass stoppered flask. At intervals of 0.5, 2.5, 5.0, 10.0 and 15.0 minutes, a loopful of the inoculated test solution is subcultured into 5 ml of sterile nutrient broth and mixed with a vortex, the high dilution serving to stop the action of the compound. All of the subculture tubes are incubated at 37° C. and checked for signs of growth by turbidity at 1, 3, 5 and 7 days. The earliest subculture time at which no growth is present is considered the endpoint and is recorded as the sterilization time. An aliquot of 0.2 ml of the diluted culture is transferred to 5 ml of buffer to simulate 0.2 ml in 5 ml of test solution. (a) Purity: A loopful of the inoculated buffer is streaked onto nutrient agar to check colony morphology and lack of contaminants. (b) Viability: A loopful of the inoculated buffer is subcultured to 5 ml of nutrient broth as in the screen and incubated at 37° C. for 24 hours. (c) Dilution of the Test Solution: A loopful of the test solution is transferred to a 5 ml tube of nutrient broth, and a loopful of the inoculated buffer is transferred to the same tube of broth. […] (d) Purity of Organisms in the Test Solution: After the 15 minute subculture, a loopful of the inoculated test solution is streaked onto nutrient agar to insure that contamination has not occurred during the screen. (e) lack of Bactericidal Activity of Buffers and Other Solvents: Before a buffer or other solvent is used as a diluent, it is screened against the five organisms to insure that the buffer or solvent has no antibacterial activity itself.

Salmonella typhimurium = experiment: Contact germicidal screen, Salmonella typhimurium ATCC No. 13311
Experimental: as §1

Aspergillus fumigatus = experiment: Contact fungicidal screen, Aspergillus fumigatus; settings: 0.1M NaOAc pH 4.6
Experimental: The organisms used in the Contact Fungicidal Screen are a dermatophyte, trychophyton mentagrophytes, frequently associated with athlete's foot; a yeast, Candida albican, causative agent of thrush and vaginitis; a phycomycete, Rhizopus oryzae, commonly known as black bread mold; an ascomycete, Aspergillus fumagatis, found in chicken droppings and causing lung infections; and another dermatophyte, Microsporum canis, which causes ringworm. These organisms are maintained as stock cultures at 4° C. on agar […] of the following composition: dextrose 2%, Neopeptone (Difco) 1%, agar 2%. Fluid medium of the same nutrient composition (without agar) was used to test the viability of the organisms after exposure to the fungicide. This medium is also known as Sabouraud's medium. Sabouraud's agar plate cultures of Aspergillus fumigatus, Microsporum canis, and a different culture of Trychophyton mentagrophytes are prepared by planting an inoculum at the center of an agar plate and incubating at 25°-30° C. for seven to ten days. The mycelial mats are removed from the surface of the agar and prepared in the same manner as the Rhizopus culture. The compounds are weighed into heat sterilized 100 ml volumetric flasks and immediately before screening dissolved in 0.1 M NaOAc pH 4.6 buffer (test solutions). The Aspergillus, Candida, Microsporum and Rhizopus species are screened in a slightly different manner. Basically, the procedure for the Contact Germicidal Efficiency Screen is utilized. After the test solutions are made up, 5 ml aliquots are pipetted into heat sterilized 25 ml glass stoppered erlenmeyer flasks. The screen is initiated when 0.5 ml of the 5×10^6 cell (spore) per ml suspension is added to the flask containing 5 ml of the test solution. […] The subculture tubes are incubated at 25°-30° C. for ten days with daily observation for mycelial growth. The earliest subculture time at which no growth is present is considered the endpoint and is recorded as the sterilization time. To insure the viability of the culture, a 0.5 ml aliquot of the 5×10^6 cells (spores) per ml suspension is transferred to 5 ml of the pH 4.6 buffer. A loopful of the inoculated buffer is then subcultured to 7 ml of fluid Sabouraud's medium and incubated at 25°-30° C. for ten days. To insure that the dilution of the test solution into the subculture medium does stop the action, a loopful of the test solution and a loopful of the inoculated buffer are transferred into the same subculture tube. This tube is also incubated at 25°-30° C. for ten days.

[1] = 10.0+ PPM, 0.1M NaOAc pH 4.6, screened simultaneously with four other compounds
[2] = 300 PPM with 50% Horse Serum, 0.1M NaOAc pH 4.6
[3] = 300 PPM with 50% Triton X100, 0.1M NaOAc pH 4.6
[4] = 308.0 PPM, Triton X100 (10% solution):pH 4.6 buffer 1:1
[5] = 308.0 PPM, horse serum:pH 4.6 buffer 1:1
[6] = 1000 PPM with 50% Horse Serum, 0.1M NaOAc pH 4.6
[7] = 1000.0 PPM, horse serum:pH 4.6 buffer 1:1
[8] = 1012.3 PPM, 0.1M NaH2PO4 pH 7.0
[9] = 338.7 PPM, horse serum:pH 4.6 buffer 1:1
[10] = 1024.0 PPM, horse serum:pH 4.6 buffer 1:1
[11] = 1070.3 PPM, 0.1M NaH2PO4 pH 7.0

Compound | Sterilization Time (Bacillus subtilis; [1]) | Sterilization Time (summary) (Bacillus subtilis; 10 PPM, 0.1M NaOAc pH 4.6) | Sterilization Time (summary) (Bacillus subtilis; 100 PPM, 0.1M NaOAc pH 4.6) | Sterilization Time (summary) (Bacillus subtilis; [2]) | Sterilization Time (summary) (Bacillus subtilis; [3]) | Sterilization Time (Bacillus subtilis; [4]) | Sterilization Time (summary) (Bacillus subtilis; [6]) | Sterilization Time (summary) (Bacillus subtilis; 1000 PPM, 0.1M NaOAc pH 4.6) | Sterilization Time (Salmonella typhimurium; [1]) | Sterilization Time (summary) (Salmonella typhimurium; 10 PPM, 0.1M NaOAc pH 4.6) | Sterilization Time (summary) (Salmonella typhimurium; 100 PPM, 0.1M NaOAc pH 4.6) | Sterilization Time (summary) (Salmonella typhimurium; [2]) | Sterilization Time (summary) (Salmonella typhimurium; [3]) | Sterilization Time (Salmonella typhimurium; [4]) | Sterilization Time (summary) (Salmonella typhimurium; [6]) | Sterilization Time (summary) (Salmonella typhimurium; 1000 PPM, 0.1M NaOAc pH 4.6) | Sterilization Time (Aspergillus fumigatus; 10 PPM) | Sterilization Time (Aspergillus fumigatus; 100 PPM) | Sterilization Time (Aspergillus fumigatus; 1000 PPM) | other results
CC(C)(CCC(=O)O)N(Cl)Cl [(III), 4-Dichloroamino-4-methylvaleric acid] | 2.5 min | 2.5 min | 0.5 min | 2.5 min | 0.5 min | 0.5 min | 0.5 min | 0.5 min | 2.5 min | 2.5 min | 0.5 min | 2.5 min | 0.5 min | 0.5 min | 0.5 min | 0.5 min | 15 min | 15 min | 10.0 min | Sterilization Time (Bacillus subtilis; 9.6 PPM, 0.1M NaOAc pH 4.6): 2.5 min; Sterilization Time (Bacillus subtilis; 9.7 PPM, 0.1M NaH2PO4 pH 7.0): 15 min; Sterilization Time (Bacillus subtilis; 102.2 PPM, 0.1M NaOAc pH 4.6): 0.5 min; Sterilization Time (Bacillus subtilis; 103.5 PPM, 0.1M NaH2PO4 pH 7.0): 10.0 min; Sterilization Time (Bacillus subtilis; [5]): 2.5 min; Sterilization Time (Bacillus subtilis; [7]): 0.5 min; Sterilization Time (Bacillus subtilis; 1007.7 PPM, 0.1M NaOAc pH 4.6): 0.5 min; Sterilization Time (Bacillus subtilis; [8]): 2.5 min; Sterilization Time (Salmonella typhimurium; 9.6 PPM, 0.1M NaOAc pH 4.6): 2.5 min; Sterilization Time (Salmonella typhimurium; 9.7 PPM, 0.1M NaH2PO4 pH 7.0): 15 min; Sterilization Time (Salmonella typhimurium; 102.2 PPM, 0.1M NaOAc pH 4.6): 0.5 min; Sterilization Time (Salmonella typhimurium; 103.5 PPM, 0.1M NaH2PO4 pH 7.0): 5.0 min; Sterilization Time (Salmonella typhimurium; [5]): 2.5 min; Sterilization Time (Salmonella typhimurium; [7]): 0.5 min; Sterilization Time (Salmonella typhimurium; 1007.7 PPM, 0.1M NaOAc pH 4.6): 0.5 min; Sterilization Time (Salmonella typhimurium; [8]): 0.5 min
CC(C)(COC(=O)CCC(=O)O)N(Cl)Cl [(IV), 2-Dichloroamino-2-methylpropylhemisuccinate] | 2.5 min | 2.5 min | 2.5 min | 5.0 min | 0.5 min | 0.5 min | 0.5 min | 0.5 min | 2.5 min | 2.5 min | 0.5 min | 10.0 min | 0.5 min | 0.5 min | 2.5 min | 0.5 min | 15 min | 15 min | 15 min | Sterilization Time (Bacillus subtilis; 8.6 PPM, 0.1M NaOAc pH 4.6): 5.0 min; Sterilization Time (Bacillus subtilis; 9.8 PPM, 0.1M NaH2PO4 pH 7.0): 15 min; Sterilization Time (Bacillus subtilis; 106.2 PPM, 0.1M NaOAc pH 4.6): 2.5 min; Sterilization Time (Bacillus subtilis; 149.7 PPM, 0.1M NaH2PO4 pH 7.0): 10.0 min; Sterilization Time (Bacillus subtilis; [9]): 5.0 min; Sterilization Time (Bacillus subtilis; 1008.0 PPM, 0.1M NaOAc pH 4.6): 0.5 min; Sterilization Time (Bacillus subtilis; [10]): 0.5 min; Sterilization Time (Bacillus subtilis; [11]): 2.5 min; Sterilization Time (Salmonella typhimurium; 8.6 PPM, 0.1M NaOAc pH 4.6): 5.0 min; Sterilization Time (Salmonella typhimurium; 9.8 PPM, 0.1M NaH2PO4 pH 7.0): 15 min; Sterilization Time (Salmonella typhimurium; 106.2 PPM, 0.1M NaOAc pH 4.6): 0.5 min; Sterilization Time (Salmonella typhimurium; 149.7 PPM, 0.1M NaH2PO4 pH 7.0): 15.0 min; Sterilization Time (Salmonella typhimurium; [9]): 10.0 min; Sterilization Time (Salmonella typhimurium; 1008.0 PPM, 0.1M NaOAc pH 4.6): 0.5 min; Sterilization Time (Salmonella typhimurium; [10]): 2.5 min; Sterilization Time (Salmonella typhimurium; [11]): 0.5 min
